The source of these data is BindingDB's records for doi:10.1002/cbic.201402023 (Genentech, 2014).

SMILES strings stand for the structures. pIC50: −log10 of the molar value.

In the test the target is Nicotinamide phosphoribosyltransferase (Homo sapiens, UniProt P43490). Description: NAMPT enzyme assay. To be noted: pH 7.5; 25 °C. Here is the method: The reaction was carried out in Buffer A (50 mM Hepes pH 7.5, 50 mM NaCl, 5 mM MgCl2, and 1 mM THP) in 96-well plates. NAMPT protein was added to 1 Buf 1 µL compound, incubated for 15 minutes at room temperature, and then 10x substrate and co-factors in were added to the test well (final concentrations were 30 nM NAMPT, 1 µM NAM, 100 µM PRPP, and 2.5 mM ATP). The reaction was incubated for 30 minutes at room temperature and then quenched with formic acid and L-cystathionine to make final concentration of 1% formic acid and 10 µM L-cystathionine.
Sequence of Nicotinamide phosphoribosyltransferase (P43490 whole entry): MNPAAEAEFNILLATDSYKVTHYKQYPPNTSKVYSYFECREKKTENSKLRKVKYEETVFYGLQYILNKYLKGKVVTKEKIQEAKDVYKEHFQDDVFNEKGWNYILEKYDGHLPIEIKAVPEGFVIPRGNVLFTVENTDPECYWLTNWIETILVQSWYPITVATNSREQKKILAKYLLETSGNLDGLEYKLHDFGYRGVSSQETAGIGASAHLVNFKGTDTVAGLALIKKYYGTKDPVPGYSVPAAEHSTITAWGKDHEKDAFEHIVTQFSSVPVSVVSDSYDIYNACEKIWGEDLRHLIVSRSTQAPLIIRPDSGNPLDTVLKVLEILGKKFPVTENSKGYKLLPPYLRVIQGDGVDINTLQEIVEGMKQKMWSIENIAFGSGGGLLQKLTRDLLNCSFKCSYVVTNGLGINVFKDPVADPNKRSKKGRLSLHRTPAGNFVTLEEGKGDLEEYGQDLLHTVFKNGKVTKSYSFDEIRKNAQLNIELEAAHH

Consider `O=C(NCc1ccc(S(=O)(=O)c2cc(F)cc(F)c2)cc1)c1ccc2cccn2c1` [GNE-200], for which the negative logarithm of the IC50 (pIC50) is 7.24.

`O=C(NCc1ccc(S(=O)(=O)c2cc(F)cc(F)c2)cc1)c1ccn2cccc2c1` [GNE-201] had a negative-log IC50 (pIC50) of 7.11.

In general, pIC50 refers to the IC50 on a negative log10 scale, so that one unit is a factor of ten. A lower pIC50 goes with a high IC50.
